Results on 1 substance are retold here after patent US20210283199A1 (priority 2020, published 2021).

Some test systems named below: agrD gene; netB gene; C. perfringens CP4.6.
Holding throughout (assay type): cell-based, Clostridium perfringens
For assay [1], the system named is C. perfringens strain 4.6.
Assay [2] has as its system C. perfringens strain 4.6. The source holds these as a separate data set.
For assay [3], the system named is perfringolysin O (pfoA) toxin secreted by C. perfringens CP4.6.

“Also recorded” adds a separate entry of the source.

For the substance fengycin, the biofilm formation entry in assay [1] is “inhibited the ability of the organism to form biofilm”. The “cell growth (cell count, cfu/ml)” value in assay [2] was “did not interfere and had minimal effect on cell growth”. Further, in the assay on agrD gene, the “expression of agrD gene” value was “downregulated” and the “lowest concentration that downregulates expression of agrD” value worked out at 0.1 ppm. Also, in the assay with netB gene, the “expression of netB gene” value is given as “downregulated” and the “lowest concentration that downregulates expression of netB” value was determined as 0.1 ppm. Besides, in assay [3], the “hemolysis activity (zone of clearing)” value is reported as “reduced significantly; also recorded: completely inhibited”. In the assay with C. perfringens CP4.6, the “C. perfringens cell growth (planktonic cell count)” value is “did not interfere and had minimal effect on C. perfringens cell growth”.
